Data set [1] can be described thus: Reprecipitation test for compound A with copolymers of different amounts of neutralization, Experimental Example 3. Type of data set: physicochemical. The settings on record: compound A in acetonitrile; fluid containing copolymer E of Examples 5, 6 or 7 (every Example). The protocol: Each of the aminoalkyl methacrylate copolymers E having a solubility enhanced with acid prepared in Examples 5, 6, and 7 was dissolved in 500 mL of a second fluid for dissolution test used in a dissolution test described in the Japanese Pharmacopoeia fifteenth edition.
(§1) To each vessel, 2 mL of a solution of compound A (25 mg/mL) in acetonitrile was added, and an automated dissolution tester (Toyama Sangyo Co., Ltd.) was used to carry out a reprecipitation test for compound A, in accordance with a dissolution test, method 2, described in the Japanese Pharmacopoeia. The absorbance of compound A was measured at a wavelength of 273 nm. The paddle rotation speed was 50 rpm. The percentage dissolved was calculated on the basis that an absorbance of 0.576 when measured using a 1 mm cell was regarded as a concentration of 100 μg/mL (compound A).

A short description of data set [2]: Reprecipitation (dissolution) test for compound A dissolved in polyethylene glycol 400, Experimental Example 2. The class given is physicochemical. The settings on record: compound A in polyethylene glycol 400. Here is the method:
Each (50 mg) of the aminoalkyl methacrylate copolymer E having a solubility enhanced with acid prepared in Example 1, and hydroxypropylmethylcellulose 2910 (TC-5E, Shin-Etsu Chemical Co., Ltd.) was dissolved in 500 mL of a second fluid for dissolution test used in a dissolution test described in the Japanese Pharmacopoeia fifteenth edition. For comparison, 500 mL of a second fluid for dissolution test used in a dissolution test described in the Japanese Pharmacopoeia fifteenth edition without such additives was prepared.
as §1, with “mg/mL) in polyethylene glycol 400 (Kanto Chemical Co., Inc.) was added,” for “mg/mL) in acetonitrile was added,”, “dissolution tester (manufactured by Toyama Sangyo Co.,” for “dissolution tester (Toyama Sangyo Co.,”, “Pharmacopoeia. The ultraviolet absorbance of” for “Pharmacopoeia. The absorbance of”

A short description of data set [3]: Reprecipitation (dissolution) test for compound A dissolved in acetonitrile, Experimental Example 1. Type of data set: physicochemical. The protocol: Each (50 mg) of the aminoalkyl methacrylate copolymer E having a solubility enhanced with acid prepared in Example 1, hydroxypropylmethylcellulose 2910 (TC-5E, Shin-Etsu Chemical Co., Ltd.), and copolyvidone (Kollidon VA-64, BASF) was dissolved in 500 mL of a second fluid for disintegrating test used in a disintegrating test described in the Japanese Pharmacopoeia fifteenth edition. For comparison, 500 mL of a second fluid for disintegrating test used in a disintegrating test described in the Japanese Pharmacopoeia fifteenth edition without such additives was prepared.
as §1, with “dissolution tester (manufactured by Toyama Sangyo Co.,” for “dissolution tester (Toyama Sangyo Co.,”, “Pharmacopoeia. The ultraviolet absorbance of” for “Pharmacopoeia. The absorbance of”

The nature of data set [4]: Reprecipitation test for compound A with copolymer solubilized with citric acid, Experimental Example 4. The class given is physicochemical. The settings on record: compound A in acetonitrile; fluid containing copolymer E of Example 8 (citric acid). The protocol: Each (50 mg) of the aminoalkyl methacrylate copolymers E having a solubility enhanced with acid prepared in Examples 1 and 8 was dissolved in 500 mL of a second fluid for disintegrating test used in a disintegrating test described in the Japanese Pharmacopoeia fifteenth edition. For comparison, 500 mL of a second fluid for disintegrating test used in a disintegrating test described in the Japanese Pharmacopoeia fifteenth edition without such additives was prepared.
To each vessel, 2 mL of a solution of compound A (25 mg/mL) in acetonitrile was added, and an automated dissolution tester (Toyama Sangyo Co., Ltd.) was used to carry out a reprecipitation test for compound A, in accordance with a dissolution test, method 2, described in the Japanese Pharmacopoeia. The ultraviolet absorbance of compound A was measured at a wavelength of 273 nm. The paddle rotation speed was 50 rpm. The percentage dissolved was calculated on the basis that an absorbance of 0.576 when measured using a 1 mm cell was regarded as a concentration of 100 μg/mL (compound A).

For data set [5] the following is noted: cited from earlier work.
Data set [6] can be described thus: Reprecipitation (dissolution) test for tacrolimus dissolved in ethanol, Experimental Example 6. The class given is physicochemical. Here is the method:
Each (300 mg) of the aminoalkyl methacrylate copolymer E having a solubility enhanced with acid prepared in Example 4, and hydroxypropylmethylcellulose 2910 (TC-5E, Shin-Etsu Chemical Co., Ltd.) was dissolved in 300 mL of a second fluid for disintegrating test used in a disintegrating test described in the Japanese Pharmacopoeia fifteenth edition. For comparison, 300 mL of a second fluid for disintegrating test used in a disintegrating test described in the Japanese Pharmacopoeia fifteenth edition without such additives was prepared.
To each vessel, 1 mL of a solution of tacrolimus (100 mg/mL) in ethanol was added. Samples were taken at regular intervals, and centrifuged at 3000 rpm for 15 minutes. Tacrolimus dissolved in each supernatant was measured by a high performance liquid chromatography.

[7] abbreviates: fluid containing hydroxypropylmethylcellulose 2910, after 2 hours.

With `Cc1cccc(C)c1N(CC(=O)Nc1ccc(-c2ncon2)cc1)C(=O)C1CCS(=O)(=O)CC1` [compound A, N-(2,6-Dimethylphenyl)-N-(2-{[4-(1,2,4-oxadiazol-3-yl)phenyl]amino}-2-oxoethyl)tetrahydro-2H-thiopyran-4-carboxamide 1,1-dioxide], the values for the maintenance of solubility result in data set [1] and in data set [4] were “a high solubility was maintained for a long time” and “maintained for a long time”, respectively. Moreover, the reprecipitation result in data set [2] (absence of additives) was “reprecipitated immediately after the beginning of the test”; in data set [3] (compound A in acetonitrile added to JP second fluid, absence of additives), “reprecipitated immediately after the beginning of the test”. Also, the percentage dissolved entry was “approximately 75%” in data set [2] (fluid containing copolymer E of Example 1, after 24 hours); “approximately 30%” in data set [2] (setting [7]); “approximately 75%” in data set [3] (compound A in acetonitrile added to JP second fluid containing copolymer E of Example 1 (50 mg/500 mL), after 24 hours); “approximately 30%” in data set [3] (compound A in acetonitrile added to JP second fluid containing copolyvidone (50 mg/500 mL), after 2 hours); “approximately 30%” in data set [3] (compound A in acetonitrile added to JP second fluid containing hydroxypropylmethylcellulose 2910 (50 mg/500 mL), after 2 hours).

`C=CC[C@@H]1/C=C(\C)C[C@H](C)C[C@H](OC)[C@H]2O[C@@](O)(C(=O)C(=O)N3CCCC[C@H]3C(=O)O[C@H](/C(C)=C/[C@@H]3CC[C@@H](O)[C@H](OC)C3)[C@H](C)[C@@H](O)CC1=O)[C@H](C)C[C@@H]2OC` [tacrolimus]: the water solubility in data set [5] is not above 1 µg/mL. In addition, the reprecipitation result in data set [6] (absence of additives) is “reprecipitated immediately after the beginning of the test”. Further, the percentage dissolved in data set [6] (fluid containing copolymer E of Example 4, after 24 hours) is recorded as not below 90%; in data set [6] (setting [7]), “approximately 20%”.

The values above are taken from US20080221047A1, “Aminoakyl methacrylate copolymer E for maintaining solubility of poorly-soluble drug” (ASTELLAS PHARMA INC.,, priority 2006, published 2008).
